Molecular target: T1, full-length recombinant human NEK7 (Homo sapiens, UniProt Q8TDX7)
T1 construct: full-length recombinant human NEK7; GST (N); purchased SignalChem NO9-10G; host or cells: Sf9 insect cells (baculovirus)
Assay: NEK7 enzymatic assay
Format: biochemical
Conditions: recombinant human NEK7, casein substrate, radiolabelled ATP
Procedure: Casein substrate (from bovine milk, hydrolyzed and partially dephosphorylated mixture of α, β and κ caseins, obtained from Sigma Aldrich, catalogue #C4765, diluted in distilled water to a final concentration of 1 mg/mL) and full-length recombinant human NEK7 (expressed by baculovirus in Sf9 insect cells using a N-terminal GST tag, obtained from SignalChem, catalogue #NO9-10G, 0.1 μg/μL) were mixed in assay buffer (20 mM Hepes pH 7.5, 10 mM MgCl2, 1 mM EGTA, 0.02% Brij35, 0.02 mg/ml BSA, 0.1 mM Na3VO4, 2 mM DTT, 1% DMSO). Compounds of interest (serial 3-fold dilution in DMSO from 10 μM to 0.5 nM) or vehicle (1% DMSO) were dispensed into the kinase reaction mixture by Acoustic technology (Echo550; nanoliter range). After incubation at room temperature for 20 minutes, the kinase reaction was initiated by addition of [^33P]-ATP (specific activity 10 μCi/μl) and the mixture was incubated at room temperature for 2 hours. The reaction was then stopped by spotting the reaction mixture on strips of phosphocellulose P81 paper. Following washing, the radioactivity of the P81 paper was measured and kinase activity data were expressed as the percent remaining kinase activity in test samples compared to vehicle reactions. IC50 values and curve fits were obtained using Prism (GraphPad Software).
Casein substrate (from bovine milk, hydrolyzed and partially dephosphorylated mixture of α, β and κ caseins, obtained from Sigma Aldrich, catalogue #C4765, diluted in distilled water to a final concentration of 1 mg/mL, assay concentration 20 μM) and full-length recombinant human Nek7 (expressed by baculovirus in Sf9 insect cells using a N-terminal GST tag, obtained from SignalChem, catalogue #NO9-10G, 0.1 μg/μL, assay concentration 70 nM) were mixed in assay buffer (20 mM Hepes pH 7.5, 10 mM MgCl2, 1 mM EGTA, 0.02% Brij35, 0.02 mg/ml BSA, 0.1 mM […], 2 mM DTT, 1% DMSO). Compounds of interest (in DMSO, serial 3-fold dilution from 10 μM to 0.5 nM) or control (1% DMSO) were dispensed into the kinase reaction mixture by Acoustic technology (Echo550; nanoliter range). After incubation at room temperature for 20 minutes, the kinase reaction was initiated by addition of [^32P]-ATP (Specific activity 10 μCi/μl) and the mixture was incubated at room temperature for 2 hours. The reaction was then stopped by spotting the reaction mixture on strips of phosphocellulose P81 paper. Following washing, the radioactivity of the P81 paper was measured and kinase activity data were expressed as the percent remaining kinase activity in test samples compared to vehicle (dimethyl sulfoxide) reactions. IC50 values and curve fits were obtained using Prism (GraphPad Software).

T1 sequence (Q8TDX7 whole entry): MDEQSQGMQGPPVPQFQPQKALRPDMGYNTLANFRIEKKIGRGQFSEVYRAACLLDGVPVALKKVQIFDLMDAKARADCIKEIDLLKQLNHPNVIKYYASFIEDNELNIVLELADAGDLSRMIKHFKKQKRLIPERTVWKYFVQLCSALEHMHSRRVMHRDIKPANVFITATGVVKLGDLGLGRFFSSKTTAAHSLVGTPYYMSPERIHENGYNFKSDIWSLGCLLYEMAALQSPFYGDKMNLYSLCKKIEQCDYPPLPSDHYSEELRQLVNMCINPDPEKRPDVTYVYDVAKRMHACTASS

SMILES	IC50
CNC1CCN(Cc2ccc(NC(=O)Nc3ccc(-c4cn(C5CC5)c5ncnc(N)c45)cc3F)cc2C(F)(F)F)CC1 [Example I-74, 1-(4-(4-amino-7-cyclopropyl-7H-pyrrolo[2,3-d]pyrimidin-5-yl)-2-fluorophenyl)-3-(4-((4-(methylamino)piperidin-1-yl)methyl)-3-(trifluoromethyl)phenyl)urea]	100 to 500 nM
CN1CCN(Cc2ccc(NC(=O)Nc3ccc(-c4cn(C5CC5)c5ncnc(N)c45)cc3F)cc2C(F)(F)F)C2(CC2)C1 [Example I-8, 1-(4-(4-amino-7-cyclopropyl-7H-pyrrolo[2,3-d]pyrimidin-5-yl)-2-fluorophenyl)-3-(4-((7-methyl-4,7-diazaspiro[2.5]octan-4-yl)methyl)-3-(trifluoromethyl)phenyl)urea]	100 to 500 nM
CN1CC2CC1CN2Cc1ccc(NC(=O)Nc2ccc(-c3cn(C4CC4)c4ncnc(N)c34)cc2F)cc1C(F)(F)F (stereo not shown) [Example I-64, 1-(4-(4-amino-7-cyclopropyl-7H-pyrrolo[2,3-d]pyrimidin-5-yl)-2-fluorophenyl)-3-(4-((5-methyl-2,5-diazabicyclo[2.2.1]heptan-2-yl)methyl)-3-(trifluoromethyl)phenyl)urea]	< 100 nM
CN1CCN(Cc2ccc(NC(=O)Nc3ccc(-c4cn(CCC(=O)O)c5ncnc(N)c45)cc3F)cc2C(F)(F)F)CC1 [Example I-106, 3-(4-amino-5-(3-fluoro-4-(3-(4-((4-methylpiperazin-1-yl)methyl)-3-(trifluoromethyl)phenyl)ureido)phenyl)-7H-pyrrolo[2,3-d]pyrimidin-7-yl)propanoic acid]	< 100 nM
CC(C)n1cc(-c2ccc(NC(=O)Nc3ccc(CN4CCN(C)CC4)c(C(F)(F)F)c3)c(F)c2)c2c(N)ncnc21 [Example I-105, 1-(4-(4-amino-7-isopropyl-7H-pyrrolo[2,3-d]pyrimidin-5-yl)-2-fluorophenyl)-3-(4-((4-methylpiperazin-1-yl)methyl)-3-(trifluoromethyl)phenyl)urea]	< 100 nM
Nc1ncnc2c1c(-c1ccc(NC(=O)Nc3ccc(OC4CCN(C5COC5)CC4F)c(C(F)(F)F)c3)c(F)c1)cn2C1CC1 (single isomer, unassigned) [Example I-91, 1-(4-(4-amino-7-cyclopropyl-7H-pyrrolo[2,3-d]pyrimidin-5-yl)-2-fluorophenyl)-3-(4-((3-fluoro-1-(oxetan-3-yl)piperidin-4-yl)oxy)-3-(trifluoromethyl)phenyl)urea]	100 to 500 nM
CN1CCN(Cc2ccc(NC(=O)Nc3ccc(-c4cn(C5CC5)c5ncnc(N)c45)cc3F)cc2Cl)CC1 [Example I-37, 1-(4-(4-amino-7-cyclopropyl-7H-pyrrolo[2,3-d]pyrimidin-5-yl)-2-fluorophenyl)-3-(3-chloro-4-((4-methylpiperazin-1-yl)methyl)phenyl)urea]	100 to 500 nM
CCN1CCC(Oc2ccc(NC(=O)Nc3ccc(-c4cn(C5CC5)c5ncnc(N)c45)cc3F)cc2C(F)(F)F)CC1 [Example I-88, 1-(4-(4-amino-7-cyclopropyl-7H-pyrrolo[2,3-d]pyrimidin-5-yl)-2-fluorophenyl)-3-(4-((1-ethylpiperidin-4-yl)oxy)-3-(trifluoromethyl)phenyl)urea]	< 100 nM
Nc1ncnc2c1c(-c1ccc(NC(=O)Nc3ccc(CN4CCCCC4)c(C(F)(F)F)c3)c(F)c1)cn2C1CC1 [Example I-95, 1-(4-(4-amino-7-cyclopropyl-7H-pyrrolo[2,3-d]pyrimidin-5-yl)-2-fluorophenyl)-3-(4-(piperidin-1-ylmethyl)-3-(trifluoromethyl)phenyl)urea]	500 to 2000 nM
Nc1ncnc2c1c(-c1ccc(NC(=O)Nc3ccc(CN4CCN(S(=O)(=O)C5CC5)CC4)c(C(F)(F)F)c3)c(F)c1)cn2C1CC1 [Example I-97, 1-(4-(4-amino-7-cyclopropyl-7H-pyrrolo[2,3-d]pyrimidin-5-yl)-2-fluorophenyl)-3-(4-((4-(cyclopropylsulfonyl)piperazin-1-yl)methyl)-3-(trifluoromethyl)phenyl)urea]	500 to 2000 nM
Nc1ncnc2c1c(-c1ccc(NC(=O)Nc3ccc(CN4CCOCC4)cc3F)c(F)c1)cn2C1CC1 [Example I-1, 1-(4-(4-amino-7-cyclopropyl-7H-pyrrolo[2,3-d]pyrimidin-5-yl)-2-fluorophenyl)-3-(2-fluoro-4-(morpholinomethyl)phenyl)urea]	> 2000 nM
Nc1ncnc2c1c(-c1ccc(NC(=O)Nc3ccc(OC4CCN(C5COC5)CC4F)c(C(F)(F)F)c3)c(F)c1)cn2C1CC1 (single isomer, unassigned) [Example I-92, 1-(4-(4-amino-7-cyclopropyl-7H-pyrrolo[2,3-d]pyrimidin-5-yl)-2-fluorophenyl)-3-(4-((3-fluoro-1-(oxetan-3-yl)piperidin-4-yl)oxy)-3-(trifluoromethyl)phenyl)urea]	100 to 500 nM
Cc1cc(NC(=O)Nc2ccc(-c3nn(C(C)C)c4ncnc(N)c34)cc2)ccc1N1CCOCC1 [Example I-22, 1-(4-(4-amino-1-isopropyl-1H-pyrazolo[3,4-d]pyrimidin-3-yl)phenyl)-3-(3-methyl-4-morpholinophenyl)urea]	100 to 500 nM
CN1CC2(C1)CN(Cc1ccc(NC(=O)Nc3ccc(-c4cn(C5CC5)c5ncnc(N)c45)cc3F)cc1C(F)(F)F)C2 [Example I-7, 1-(4-(4-amino-7-cyclopropyl-7H-pyrrolo[2,3-d]pyrimidin-5-yl)-2-fluorophenyl)-3-(4-((6-methyl-2,6-diazaspiro[3.3]heptan-2-yl)methyl)-3-(trifluoromethyl)phenyl)urea]	> 2000 nM
CN1CCN(Cc2ccc(NC(=O)Nc3ccc(-c4cn(C5CCC5)c5ncnc(N)c45)cc3F)cc2C(F)(F)F)CC1 [Example I-19, 1-(4-(4-amino-7-cyclobutyl-7H-pyrrolo[2,3-d]pyrimidin-5-yl)-2-fluorophenyl)-3-(4-((4-methylpiperazin-1-yl)methyl)-3-(trifluoromethyl)phenyl)urea]	100 to 500 nM
CN1CCN(Cc2ccc(NC(=O)Nc3ccc(-c4nn(C5CC5)c5ncnc(N)c45)cn3)cc2C(F)(F)F)CC1 [Example I-30, 1-(5-(4-amino-1-cyclopropyl-1H-pyrazolo[3,4-d]pyrimidin-3-yl)pyridin-2-yl)-3-(4-((4-methylpiperazin-1-yl)methyl)-3-(trifluoromethyl)phenyl)urea]	100 to 500 nM
Nc1ncnc2c1c(-c1ccc(NC(=O)Nc3ccc(CN4CCOCC4)c(F)c3)c(F)c1)cn2C1CC1 [Example I-2, 1-(4-(4-amino-7-cyclopropyl-7H-pyrrolo[2,3-d]pyrimidin-5-yl)-2-fluorophenyl)-3-(3-fluoro-4-(morpholinomethyl)phenyl)urea]	> 2000 nM
CN1CC2CCC(C1)N2Cc1ccc(NC(=O)Nc2ccc(-c3cn(C4CC4)c4ncnc(N)c34)cc2F)cc1C(F)(F)F [Example I-4, 1-(4-(4-amino-7-cyclopropyl-7H-pyrrolo[2,3-d]pyrimidin-5-yl)-2-fluorophenyl)-3-(4-((3-methyl-3,8-diazabicyclo[3.2.1]octan-8-yl)methyl)-3-(trifluoromethyl)phenyl)urea]	100 to 500 nM
CC1CN(C)CCN1Cc1ccc(NC(=O)Nc2ccc(-c3cn(C4CC4)c4ncnc(N)c34)cc2F)cc1C(F)(F)F (stereo not shown) [Example I-70, 1-(4-(4-amino-7-cyclopropyl-7H-pyrrolo[2,3-d]pyrimidin-5-yl)-2-fluorophenyl)-3-(4-((2,4-dimethylpiperazin-1-yl)methyl)-3-(trifluoromethyl)phenyl)urea]	100 to 500 nM

From patent publication US20240317758A1 (Halia Therapeutics, Inc., priority 2021, published 2024)
